Experimental data taken from patent publication US20240067693A1, “POLYPEPTIDES AND USES THEREOF” (MEDIMMUNE LIMITED, priority 2020, published 2024).
Numbered stars: 1 amine (or outer) side, 2 acyl side, 3 side chain; on linkers, the order of the positions; unused ones are H or OH. Bridge positions count the residues as written; N and C are the ends. Square brackets hold non-standard residues; d marks the D form. Side chains are listed from the residue outwards. Peptide text beside a SMILES is read from it. * marks the point of attachment. C18 diacid = O=C(O)CCCCCCCCCCCCCCCCC(=O)*; γGlu = O=C(O)[C@H](CCC(=O)[*:2])N[*:1]; Aib = CC(C)(N)C(=O)O

How the values were obtained:
[1] = biological target: T1, human amylin receptor (calcitonin receptor co-expressed with receptor activity modifying protein, RAMP3) (hAMYR3) (Homo sapiens, UniProt O60896+P30988); assay: cAMP production in 1321N1 cells with stable recombinant expression of human amylin receptor (hAMYR3); type: cell-based; conditions: for Ratio (selectivity hAMYR vs hCTR, ratio of EC50 values at the two receptors): EC50 hCTR / EC50 hAMYR3; for EC50: cAMP, 1321N1 cells, assay buffer with 0.1% BSA, read-out: EC50 (pM) hAMYR3
T1 construct: expressed in transfected cells
T1 sequence (P30988 25-474): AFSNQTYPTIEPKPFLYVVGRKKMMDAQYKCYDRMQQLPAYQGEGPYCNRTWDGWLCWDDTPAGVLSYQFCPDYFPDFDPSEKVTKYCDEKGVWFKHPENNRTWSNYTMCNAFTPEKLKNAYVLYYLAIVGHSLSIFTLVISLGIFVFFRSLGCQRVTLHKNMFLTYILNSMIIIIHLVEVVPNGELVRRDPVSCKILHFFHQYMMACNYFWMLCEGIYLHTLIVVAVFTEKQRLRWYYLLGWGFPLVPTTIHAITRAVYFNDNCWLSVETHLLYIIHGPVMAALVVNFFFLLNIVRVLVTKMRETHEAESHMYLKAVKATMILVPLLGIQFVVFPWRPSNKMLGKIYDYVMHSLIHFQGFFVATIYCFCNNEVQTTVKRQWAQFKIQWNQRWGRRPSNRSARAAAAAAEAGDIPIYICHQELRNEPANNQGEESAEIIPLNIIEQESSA
T1 sequence (O60896 24-148 partner): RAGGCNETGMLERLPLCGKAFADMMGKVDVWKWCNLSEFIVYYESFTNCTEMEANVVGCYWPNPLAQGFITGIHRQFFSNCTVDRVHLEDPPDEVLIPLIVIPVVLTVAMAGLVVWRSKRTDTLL
Method in brief: (§1)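 EC50 values come from 4-parameter logistic fits of HTRF cAMP signal, normalised to maximal calcitonin or amylin effect. Peptides were tested in duplicate for 30 min at RT in IBMX-containing (0.5 mM) BSA/HEPES buffer pH 7.4 on stable 1321N1 (human CTR, AMYR3) or HEK (rat CTR, AMYR3) lines.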

[2] = biological target: T2, human calcitonin receptor (hCTR) (Homo sapiens, UniProt P30988); assay: cAMP production in 1321N1 cells with stable recombinant expression of human calcitonin receptor (hCTR); type: cell-based; conditions: cAMP, 1321N1 cells, assay buffer with 0.1% BSA; read-out: EC50 (pM) hCTR
T2 construct: expressed in transfected cells
T2 sequence (P30988 25-474): T1 sequence (P30988 25-474)
Method in brief: as §1

CC[C@H](C)[C@H](NC(=O)[C@@H]1CCCN1C(=O)CNC(=O)[C@H](Cc1ccccc1)NC(=O)[C@H](CC(N)=O)NC(=O)[C@H](CC(N)=O)NC(=O)[C@H](CO)NC(=O)[C@H](CO)NC(=O)[C@H](Cc1c[nH]cn1)NC(=O)C(C)(C)NC(=O)[C@H](CC(C)C)NC(=O)[C@H](Cc1ccccc1)NC(=O)[C@H](CC(N)=O)NC(=O)[C@H](C)NC(=O)[C@H](CC(C)C)NC(=O)[C@H](CCCNC(=N)N)NC(=O)[C@H](CCC(N)=O)NC(=O)[C@@H](NC(=O)[C@H](C)NC(=O)[C@@H]1CSSC[C@H](NC(=O)[C@H](CCCCN)NC(=O)[C@@H](N)CCCCNC(=O)CC[C@H](NC(=O)CCCCCCCCCCCCCCCCC(=O)O)C(=O)O)C(=O)N[C@@H](CC(N)=O)C(=O)N[C@@H]([C@@H](C)O)C(=O)N[C@@H](C)C(=O)N[C@@H]([C@@H](C)O)C(=O)N1)[C@@H](C)O)C(=O)NC(C)(C)C(=O)N1CCC[C@H]1C(=O)N1CCC[C@H]1C(=O)N[C@H](C(=O)N[C@@H](CC(N)=O)C(=O)N[C@H](C(=O)NCC(=O)N[C@@H](CO)C(=O)N[C@@H](CC(N)=O)C(=O)N[C@H](C(=O)N[C@@H](Cc1ccc(O)cc1)C(N)=O)[C@@H](C)O)C(C)C)[C@@H](C)O [Peptide 95, K(γE-C18diacid)K[CNTATC]ATQRLANFL(Aib)HSSNNFGPI(Aib)PPTNVGSNTY-amide] (H-K([γGlu-C18 diacid])KCNTATCATQRLANFL[Aib]HSSNNFGPI[Aib]PPTNVGSNTY-NH2; disulfide 3-8)
Ratio (selectivity hAMYR vs hCTR, ratio of EC50 values at the two receptors) [1]: 2
EC50 [1]: 691 pM
EC50 [2]: 1170 pM

CC[C@H](C)[C@H](NC(=O)[C@@H]1CCCN1C(=O)CNC(=O)[C@H](Cc1ccccc1)NC(=O)[C@H](CC(N)=O)NC(=O)[C@H](CC(N)=O)NC(=O)[C@H](CO)NC(=O)[C@H](CO)NC(=O)[C@H](Cc1c[nH]cn1)NC(=O)C(C)(C)NC(=O)[C@H](CC(C)C)NC(=O)[C@H](Cc1ccccc1)NC(=O)[C@H](CC(N)=O)NC(=O)[C@H](C)NC(=O)[C@H](CC(C)C)NC(=O)[C@H](CCCNC(=N)N)NC(=O)[C@H](CCC(N)=O)NC(=O)[C@@H](NC(=O)[C@H](C)NC(=O)[C@@H]1CSSC[C@H](NC(=O)[C@H](CCCCN)NC(=O)[C@@H](N)CCCCNC(=O)CC[C@H](NC(=O)CCCCCCCCCCCCCCCCC(=O)O)C(=O)O)C(=O)N[C@@H](CC(N)=O)C(=O)N[C@@H]([C@@H](C)O)C(=O)N[C@@H](C)C(=O)N[C@@H]([C@@H](C)O)C(=O)N1)[C@@H](C)O)C(=O)N[C@@H](CC(C)C)C(=O)NC(C)(C)C(=O)N1CCC[C@H]1C(=O)N[C@H](C(=O)N[C@@H](CC(N)=O)C(=O)N[C@H](C(=O)NCC(=O)N[C@@H](CO)C(=O)N[C@@H](CC(N)=O)C(=O)N[C@H](C(=O)N[C@@H](Cc1ccc(O)cc1)C(N)=O)[C@@H](C)O)C(C)C)[C@@H](C)O [Peptide 96, K(γE-C18diacid)K[CNTATC]ATQRLANFL(Aib)HSSNNFGPIL(Aib)PTNVGSNTY-amide] (H-K([γGlu-C18 diacid])KCNTATCATQRLANFL[Aib]HSSNNFGPIL[Aib]PTNVGSNTY-NH2; disulfide 3-8; N-terminus assumed)
Ratio (selectivity hAMYR vs hCTR, ratio of EC50 values at the two receptors) [1]: 2
EC50 [1]: 556 pM
EC50 [2]: 859 pM

CC[C@H](C)[C@H](NC(=O)[C@@H]1CCCN1C(=O)CNC(=O)[C@H](Cc1ccccc1)NC(=O)[C@H](CC(N)=O)NC(=O)[C@H](CC(N)=O)NC(=O)[C@H](CO)NC(=O)[C@H](CO)NC(=O)[C@H](Cc1c[nH]cn1)NC(=O)C(C)(C)NC(=O)[C@H](CC(C)C)NC(=O)[C@H](Cc1ccccc1)NC(=O)[C@H](CC(N)=O)NC(=O)[C@H](C)NC(=O)[C@H](CC(C)C)NC(=O)[C@H](CCCNC(=N)N)NC(=O)[C@H](CCC(N)=O)NC(=O)[C@@H](NC(=O)[C@H](C)NC(=O)[C@@H]1CSSC[C@H](NC(=O)[C@H](CCCCN)NC(=O)[C@@H](N)CCCCNC(=O)CC[C@H](NC(=O)CCCCCCCCCCCCCCCCC(=O)O)C(=O)O)C(=O)N[C@@H](CC(N)=O)C(=O)N[C@@H]([C@@H](C)O)C(=O)N[C@@H](C)C(=O)N[C@@H]([C@@H](C)O)C(=O)N1)[C@@H](C)O)C(=O)N[C@@H](CC(C)C)C(=O)N1CCC[C@H]1C(=O)NC(C)(C)C(=O)N[C@H](C(=O)N[C@@H](CC(N)=O)C(=O)N[C@H](C(=O)NCC(=O)N[C@@H](CO)C(=O)N[C@@H](CC(N)=O)C(=O)N[C@H](C(=O)N[C@@H](Cc1ccc(O)cc1)C(N)=O)[C@@H](C)O)C(C)C)[C@@H](C)O [Peptide 97, K(γE-C18diacid)K[CNTATC]ATQRLANFL(Aib)HSSNNFGPILP(Aib)TNVGSNTY-amide] (H-K([γGlu-C18 diacid])KCNTATCATQRLANFL[Aib]HSSNNFGPILP[Aib]TNVGSNTY-NH2; disulfide 3-8; N-terminus assumed)
Ratio (selectivity hAMYR vs hCTR, ratio of EC50 values at the two receptors) [1]: 1
EC50 [1]: 684 pM
EC50 [2]: 944 pM

CC[C@H](C)[C@H](NC(=O)[C@@H]1CCCN1C(=O)CNC(=O)[C@H](Cc1ccccc1)NC(=O)[C@H](CC(N)=O)NC(=O)[C@H](CC(N)=O)NC(=O)[C@H](CO)NC(=O)[C@H](CO)NC(=O)[C@H](Cc1c[nH]cn1)NC(=O)C(C)(C)NC(=O)[C@H](CC(C)C)NC(=O)[C@H](Cc1ccccc1)NC(=O)[C@H](CC(N)=O)NC(=O)[C@H](C)NC(=O)[C@H](CC(C)C)NC(=O)[C@H](CCCNC(=N)N)NC(=O)[C@H](CCC(N)=O)NC(=O)[C@@H](NC(=O)[C@H](C)NC(=O)[C@@H]1CSSC[C@H](NC(=O)[C@H](CCCCN)NC(=O)[C@@H](N)CCCCNC(=O)CC[C@H](NC(=O)CCCCCCCCCCCCCCCCC(=O)O)C(=O)O)C(=O)N[C@@H](CC(N)=O)C(=O)N[C@@H]([C@@H](C)O)C(=O)N[C@@H](C)C(=O)N[C@@H]([C@@H](C)O)C(=O)N1)[C@@H](C)O)C(=O)N[C@@H](CC(C)C)C(=O)N1CCC[C@H]1C(=O)N1CCC[C@H]1C(=O)N[C@H](C(=O)NC(C)(C)C(=O)N[C@H](C(=O)NCC(=O)N[C@@H](CO)C(=O)N[C@@H](CC(N)=O)C(=O)N[C@H](C(=O)N[C@@H](Cc1ccc(O)cc1)C(N)=O)[C@@H](C)O)C(C)C)[C@@H](C)O [Peptide 98, K(γE-C18diacid)K[CNTATC]ATQRLANFL(Aib)HSSNNFGPILPPT(Aib)VGSNTY-amide] (H-K([γGlu-C18 diacid])KCNTATCATQRLANFL[Aib]HSSNNFGPILPPT[Aib]VGSNTY-NH2; disulfide 3-8; N-terminus assumed)
Ratio (selectivity hAMYR vs hCTR, ratio of EC50 values at the two receptors) [1]: 1
EC50 [1]: 942 pM
EC50 [2]: 972 pM

CC[C@H](C)[C@H](NC(=O)[C@@H]1CCCN1C(=O)CNC(=O)[C@H](Cc1ccccc1)NC(=O)[C@H](CC(N)=O)NC(=O)[C@H](CC(N)=O)NC(=O)[C@H](CO)NC(=O)[C@H](CO)NC(=O)[C@H](Cc1c[nH]cn1)NC(=O)C(C)(C)NC(=O)[C@H](CC(C)C)NC(=O)[C@H](Cc1ccccc1)NC(=O)[C@H](CC(N)=O)NC(=O)[C@H](C)NC(=O)[C@H](CC(C)C)NC(=O)[C@H](CCCNC(=N)N)NC(=O)[C@H](CCC(N)=O)NC(=O)[C@@H](NC(=O)[C@H](C)NC(=O)[C@@H]1CSSC[C@H](NC(=O)[C@H](CCCCN)NC(=O)[C@@H](N)CCCCNC(=O)CC[C@H](NC(=O)CCCCCCCCCCCCCCCCC(=O)O)C(=O)O)C(=O)N[C@@H](CC(N)=O)C(=O)N[C@@H]([C@@H](C)O)C(=O)N[C@@H](C)C(=O)N[C@@H]([C@@H](C)O)C(=O)N1)[C@@H](C)O)C(=O)N[C@@H](CC(C)C)C(=O)N1CCC[C@H]1C(=O)N1CCC[C@H]1C(=O)N[C@H](C(=O)N[C@@H](CC(N)=O)C(=O)NC(C)(C)C(=O)NCC(=O)N[C@@H](CO)C(=O)N[C@@H](CC(N)=O)C(=O)N[C@H](C(=O)N[C@@H](Cc1ccc(O)cc1)C(N)=O)[C@@H](C)O)[C@@H](C)O [Peptide 99, K(γE-C18diacid)K[CNTATC]ATQRLANFL(Aib)HSSNNFGPILPPTN(Aib)GSNTY-amide] (H-K([γGlu-C18 diacid])KCNTATCATQRLANFL[Aib]HSSNNFGPILPPTN[Aib]GSNTY-NH2; disulfide 3-8; N-terminus assumed)
Ratio (selectivity hAMYR vs hCTR, ratio of EC50 values at the two receptors) [1]: 0.5
EC50 [1]: 3800 pM
EC50 [2]: 1820 pM
